Experimental data taken from ChEMBL document CHEMBL5653615 (J Biol Chem, 2013).
Each block holds one compound with its values, some of them ahead of it.

Columns and labels:
[1] = target: Activin receptor type-1-like (Homo sapiens) (UniProt P37023); experiment: Inhibition of human ALK1 at 18.6 nM by HotSpot assay relative to control
[2] = target: Calcium/calmodulin-dependent protein kinase type 1D (Homo sapiens) (UniProt Q8IU85); experiment: Inhibition of human CAMK1d at 18.6 nM by HotSpot assay relative to control
[3] = target: Calcium/calmodulin-dependent protein kinase type II subunit alpha (Homo sapiens) (UniProt Q9UQM7); experiment: Inhibition of human CAMK2a at 18.6 nM by HotSpot assay relative to control
[4] = target: Fibroblast growth factor receptor 4 (Homo sapiens) (UniProt P22455); experiment: Inhibition of human FGFR4 at 18.6 nM by HotSpot assay relative to control
[5] = target: T1, Beta-adrenergic receptor kinase 1 (Homo sapiens) (UniProt P25098); experiment: Inhibition of human GRK2 at 18.6 nM by HotSpot assay relative to control
T1 sequence (whole entry): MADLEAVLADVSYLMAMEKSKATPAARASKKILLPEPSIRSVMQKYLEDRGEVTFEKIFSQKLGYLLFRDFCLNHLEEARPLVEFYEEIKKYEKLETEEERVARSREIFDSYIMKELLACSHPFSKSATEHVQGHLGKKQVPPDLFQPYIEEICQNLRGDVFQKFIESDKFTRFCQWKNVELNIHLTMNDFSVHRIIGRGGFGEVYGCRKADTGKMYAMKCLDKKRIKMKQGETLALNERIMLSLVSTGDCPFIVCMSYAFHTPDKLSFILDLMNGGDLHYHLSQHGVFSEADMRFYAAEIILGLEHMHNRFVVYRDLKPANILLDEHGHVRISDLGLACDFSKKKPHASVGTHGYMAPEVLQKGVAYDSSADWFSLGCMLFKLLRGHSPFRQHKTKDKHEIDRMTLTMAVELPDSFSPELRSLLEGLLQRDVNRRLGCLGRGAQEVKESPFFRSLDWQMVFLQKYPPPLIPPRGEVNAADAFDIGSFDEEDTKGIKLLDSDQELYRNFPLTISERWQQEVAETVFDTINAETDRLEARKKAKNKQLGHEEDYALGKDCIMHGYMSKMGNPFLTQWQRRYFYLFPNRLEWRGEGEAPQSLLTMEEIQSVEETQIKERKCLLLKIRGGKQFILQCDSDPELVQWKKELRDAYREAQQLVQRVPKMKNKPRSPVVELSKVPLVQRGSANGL

[6] = target: G protein-coupled receptor kinase 4 (Homo sapiens) (UniProt P32298); experiment: Inhibition of human GRK4 at 18.6 nM by HotSpot assay relative to control
[7] = target: Glycogen synthase kinase-3 beta (Homo sapiens) (UniProt P49841); experiment: Inhibition of human GSK3b at 18.6 nM by HotSpot assay relative to control
[8] = target: Homeodomain-interacting protein kinase 2 (Homo sapiens) (UniProt Q9H2X6); experiment: Inhibition of human HIPK2 at 18.6 nM by HotSpot assay relative to control
[9] = target: Mitogen-activated protein kinase kinase kinase 11 (Homo sapiens) (UniProt Q16584); experiment: Inhibition of human MAP3K11 at 18.6 nM by HotSpot assay relative to control
[10] = target: Tyrosine-protein kinase Yes (Homo sapiens) (UniProt P07947); experiment: Inhibition of human YES1 at 18.6 nM by HotSpot assay relative to control
[11] = target: Mitogen-activated protein kinase kinase kinase 7 (Homo sapiens) (UniProt O43318); experiment: Inhibition of human TAK1 at 18.6 nM by HotSpot assay relative to control
[12] = target: T2, Myotonin-protein kinase (Homo sapiens) (UniProt Q09013); experiment: Inhibition of human DMPK at 1.82 nM by HotSpot assay relative to control
T2 sequence (whole entry): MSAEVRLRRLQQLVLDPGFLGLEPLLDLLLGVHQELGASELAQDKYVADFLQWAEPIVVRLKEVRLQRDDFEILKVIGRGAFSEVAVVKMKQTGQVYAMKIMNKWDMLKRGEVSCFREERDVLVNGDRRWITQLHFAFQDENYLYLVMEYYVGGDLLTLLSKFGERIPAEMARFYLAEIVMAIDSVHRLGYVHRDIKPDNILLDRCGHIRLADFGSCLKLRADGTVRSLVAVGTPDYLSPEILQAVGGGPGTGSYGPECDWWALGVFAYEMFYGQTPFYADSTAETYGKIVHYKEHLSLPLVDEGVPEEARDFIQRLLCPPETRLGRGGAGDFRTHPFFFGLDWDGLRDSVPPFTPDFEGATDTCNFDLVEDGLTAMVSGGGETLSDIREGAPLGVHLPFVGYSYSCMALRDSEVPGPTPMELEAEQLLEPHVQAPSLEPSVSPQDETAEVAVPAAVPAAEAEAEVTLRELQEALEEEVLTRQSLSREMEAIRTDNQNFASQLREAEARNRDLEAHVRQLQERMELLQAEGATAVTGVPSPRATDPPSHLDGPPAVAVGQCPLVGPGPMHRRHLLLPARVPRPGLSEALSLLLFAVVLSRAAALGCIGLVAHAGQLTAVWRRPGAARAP

[13] = target: Mitogen-activated protein kinase kinase kinase kinase 4 (Homo sapiens) (UniProt O95819); experiment: Inhibition of human HGK at 1.82 nM by HotSpot assay relative to control
[14] = target: T3, Serine/threonine-protein kinase 4 (Homo sapiens) (UniProt Q13043); experiment: Inhibition of human STK4 at 1.82 nM by HotSpot assay relative to control
T3 sequence (whole entry): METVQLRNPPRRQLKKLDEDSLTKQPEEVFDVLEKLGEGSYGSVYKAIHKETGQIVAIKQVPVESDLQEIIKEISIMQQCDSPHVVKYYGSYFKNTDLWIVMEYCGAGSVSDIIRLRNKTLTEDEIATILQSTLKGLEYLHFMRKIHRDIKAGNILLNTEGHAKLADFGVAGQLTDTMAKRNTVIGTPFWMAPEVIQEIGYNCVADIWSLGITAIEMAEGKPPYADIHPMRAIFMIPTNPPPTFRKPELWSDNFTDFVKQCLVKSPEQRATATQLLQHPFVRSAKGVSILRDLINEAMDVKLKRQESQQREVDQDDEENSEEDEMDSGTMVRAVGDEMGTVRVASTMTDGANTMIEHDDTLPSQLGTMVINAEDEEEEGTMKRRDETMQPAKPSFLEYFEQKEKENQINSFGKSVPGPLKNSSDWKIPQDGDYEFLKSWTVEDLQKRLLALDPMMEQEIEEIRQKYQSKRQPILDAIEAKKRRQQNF

[15] = target: Serine/threonine-protein kinase PAK 5 (Homo sapiens) (UniProt Q9P286); experiment: Inhibition of human PAK5 at 1.82 nM by HotSpot assay relative to control
[16] = target: Serine/threonine-protein kinase pim-3 (Homo sapiens) (UniProt Q86V86); experiment: Inhibition of human PIM3 at 1.82 nM by HotSpot assay relative to control
[17] = target: Protein kinase C beta type (Homo sapiens) (UniProt P05771); experiment: Inhibition of human PKCb1 at 500 nM by HotSpot assay relative to control
Protein kinase C beta type (Homo sapiens), sequence (P05771 2-671 limits assumed): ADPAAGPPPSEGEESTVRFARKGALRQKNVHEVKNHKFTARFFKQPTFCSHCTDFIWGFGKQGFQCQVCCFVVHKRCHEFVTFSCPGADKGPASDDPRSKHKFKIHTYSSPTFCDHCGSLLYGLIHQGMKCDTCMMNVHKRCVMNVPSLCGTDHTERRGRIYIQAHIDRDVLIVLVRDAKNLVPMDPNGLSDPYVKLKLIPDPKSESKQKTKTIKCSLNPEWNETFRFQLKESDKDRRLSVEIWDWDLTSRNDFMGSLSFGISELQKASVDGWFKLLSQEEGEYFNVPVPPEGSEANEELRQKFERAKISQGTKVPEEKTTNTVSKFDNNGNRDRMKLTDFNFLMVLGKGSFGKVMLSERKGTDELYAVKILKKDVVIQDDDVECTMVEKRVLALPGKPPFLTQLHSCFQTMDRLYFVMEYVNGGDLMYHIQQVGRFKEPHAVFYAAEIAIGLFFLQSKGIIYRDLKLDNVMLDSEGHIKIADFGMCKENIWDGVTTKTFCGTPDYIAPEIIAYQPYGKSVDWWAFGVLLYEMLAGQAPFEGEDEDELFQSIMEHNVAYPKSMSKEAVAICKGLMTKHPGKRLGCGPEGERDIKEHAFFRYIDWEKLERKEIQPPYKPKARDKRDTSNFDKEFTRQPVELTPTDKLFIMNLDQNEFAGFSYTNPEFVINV

Tyrosine-protein kinase Yes (Homo sapiens), sequence (P07947 2-543 limits assumed): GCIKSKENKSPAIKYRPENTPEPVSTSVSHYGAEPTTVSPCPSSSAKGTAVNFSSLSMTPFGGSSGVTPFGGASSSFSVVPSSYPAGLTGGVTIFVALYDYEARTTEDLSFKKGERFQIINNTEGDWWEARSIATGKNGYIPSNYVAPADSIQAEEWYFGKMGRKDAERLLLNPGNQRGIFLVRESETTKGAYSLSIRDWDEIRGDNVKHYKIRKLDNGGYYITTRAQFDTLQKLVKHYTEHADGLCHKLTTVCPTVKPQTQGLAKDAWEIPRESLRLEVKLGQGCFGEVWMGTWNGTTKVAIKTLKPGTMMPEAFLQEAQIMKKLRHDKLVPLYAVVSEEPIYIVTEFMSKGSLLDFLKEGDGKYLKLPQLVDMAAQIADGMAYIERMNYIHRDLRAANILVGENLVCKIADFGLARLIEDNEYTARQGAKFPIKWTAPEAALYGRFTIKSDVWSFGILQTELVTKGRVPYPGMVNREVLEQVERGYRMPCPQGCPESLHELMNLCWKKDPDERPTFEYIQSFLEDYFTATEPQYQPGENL
Mitogen-activated protein kinase kinase kinase 7 (Homo sapiens), sequence (O43318 whole entry, looked up): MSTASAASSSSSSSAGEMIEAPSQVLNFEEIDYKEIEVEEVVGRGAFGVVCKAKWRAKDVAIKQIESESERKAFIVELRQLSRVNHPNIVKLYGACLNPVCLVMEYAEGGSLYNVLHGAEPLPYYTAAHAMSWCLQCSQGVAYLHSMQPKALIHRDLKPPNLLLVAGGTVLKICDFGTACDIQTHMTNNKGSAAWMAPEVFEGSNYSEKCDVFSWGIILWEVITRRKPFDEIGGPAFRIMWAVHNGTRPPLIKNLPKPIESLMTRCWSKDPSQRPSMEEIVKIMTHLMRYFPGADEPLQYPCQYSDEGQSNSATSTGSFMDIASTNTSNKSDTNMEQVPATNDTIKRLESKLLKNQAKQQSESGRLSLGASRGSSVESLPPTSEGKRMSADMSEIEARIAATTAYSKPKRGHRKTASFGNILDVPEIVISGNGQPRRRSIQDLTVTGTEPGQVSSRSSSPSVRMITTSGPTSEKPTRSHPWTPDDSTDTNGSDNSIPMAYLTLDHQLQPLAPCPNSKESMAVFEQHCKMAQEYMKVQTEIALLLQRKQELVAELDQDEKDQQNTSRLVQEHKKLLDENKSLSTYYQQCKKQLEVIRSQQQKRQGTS
Glycogen synthase kinase-3 beta (Homo sapiens), sequence (P49841 whole entry, looked up): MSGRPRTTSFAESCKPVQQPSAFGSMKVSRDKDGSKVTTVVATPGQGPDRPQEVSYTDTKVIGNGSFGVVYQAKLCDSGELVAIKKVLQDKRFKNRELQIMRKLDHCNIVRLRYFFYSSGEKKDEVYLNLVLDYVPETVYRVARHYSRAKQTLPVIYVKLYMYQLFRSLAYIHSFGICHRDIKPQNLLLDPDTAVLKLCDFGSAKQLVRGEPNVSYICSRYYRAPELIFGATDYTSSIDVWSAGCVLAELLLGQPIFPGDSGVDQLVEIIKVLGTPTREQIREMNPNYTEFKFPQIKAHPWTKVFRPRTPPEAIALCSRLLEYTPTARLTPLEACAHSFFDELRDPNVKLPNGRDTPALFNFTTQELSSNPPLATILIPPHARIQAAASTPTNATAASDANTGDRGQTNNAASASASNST
G protein-coupled receptor kinase 4 (Homo sapiens), sequence (P32298 whole entry, looked up): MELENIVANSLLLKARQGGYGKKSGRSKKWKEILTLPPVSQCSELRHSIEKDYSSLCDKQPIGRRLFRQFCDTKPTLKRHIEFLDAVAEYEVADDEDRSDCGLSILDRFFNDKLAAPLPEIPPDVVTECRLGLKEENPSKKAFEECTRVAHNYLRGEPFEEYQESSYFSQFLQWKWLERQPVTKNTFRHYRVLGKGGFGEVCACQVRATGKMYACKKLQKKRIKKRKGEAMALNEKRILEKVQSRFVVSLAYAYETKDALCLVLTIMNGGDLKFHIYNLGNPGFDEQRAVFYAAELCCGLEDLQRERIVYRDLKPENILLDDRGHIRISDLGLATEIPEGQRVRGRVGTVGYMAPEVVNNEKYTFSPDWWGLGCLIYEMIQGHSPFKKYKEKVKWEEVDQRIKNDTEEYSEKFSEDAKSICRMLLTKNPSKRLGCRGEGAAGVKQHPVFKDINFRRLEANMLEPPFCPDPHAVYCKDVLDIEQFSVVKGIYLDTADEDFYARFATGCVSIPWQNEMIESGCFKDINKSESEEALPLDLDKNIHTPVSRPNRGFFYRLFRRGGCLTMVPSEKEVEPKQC
Calcium/calmodulin-dependent protein kinase type 1D (Homo sapiens), sequence (Q8IU85 whole entry, looked up): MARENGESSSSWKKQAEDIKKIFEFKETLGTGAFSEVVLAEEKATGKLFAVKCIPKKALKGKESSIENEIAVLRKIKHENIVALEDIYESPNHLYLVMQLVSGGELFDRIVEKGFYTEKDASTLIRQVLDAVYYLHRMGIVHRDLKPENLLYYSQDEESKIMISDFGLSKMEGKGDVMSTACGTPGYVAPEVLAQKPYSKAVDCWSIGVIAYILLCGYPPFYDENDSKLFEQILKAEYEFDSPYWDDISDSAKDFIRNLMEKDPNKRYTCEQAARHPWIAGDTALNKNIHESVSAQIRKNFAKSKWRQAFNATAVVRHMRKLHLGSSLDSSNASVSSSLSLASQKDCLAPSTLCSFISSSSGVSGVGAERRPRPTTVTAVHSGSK
Activin receptor type-1-like (Homo sapiens), sequence (P37023 whole entry): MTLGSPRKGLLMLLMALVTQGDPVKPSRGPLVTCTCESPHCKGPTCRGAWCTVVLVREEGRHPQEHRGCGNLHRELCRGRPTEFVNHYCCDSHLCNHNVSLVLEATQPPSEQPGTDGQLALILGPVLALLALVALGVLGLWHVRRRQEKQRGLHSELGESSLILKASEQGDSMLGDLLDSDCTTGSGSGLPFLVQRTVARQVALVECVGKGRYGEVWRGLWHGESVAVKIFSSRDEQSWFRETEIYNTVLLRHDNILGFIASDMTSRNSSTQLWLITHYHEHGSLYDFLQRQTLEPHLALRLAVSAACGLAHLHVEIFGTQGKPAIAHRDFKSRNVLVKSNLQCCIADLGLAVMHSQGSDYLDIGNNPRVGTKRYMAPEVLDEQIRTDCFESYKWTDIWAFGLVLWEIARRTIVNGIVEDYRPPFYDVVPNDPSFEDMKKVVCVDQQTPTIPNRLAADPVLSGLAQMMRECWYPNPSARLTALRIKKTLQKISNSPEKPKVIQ
Mitogen-activated protein kinase kinase kinase kinase 4 (Homo sapiens), sequence (O95819 2-1239 limits assumed): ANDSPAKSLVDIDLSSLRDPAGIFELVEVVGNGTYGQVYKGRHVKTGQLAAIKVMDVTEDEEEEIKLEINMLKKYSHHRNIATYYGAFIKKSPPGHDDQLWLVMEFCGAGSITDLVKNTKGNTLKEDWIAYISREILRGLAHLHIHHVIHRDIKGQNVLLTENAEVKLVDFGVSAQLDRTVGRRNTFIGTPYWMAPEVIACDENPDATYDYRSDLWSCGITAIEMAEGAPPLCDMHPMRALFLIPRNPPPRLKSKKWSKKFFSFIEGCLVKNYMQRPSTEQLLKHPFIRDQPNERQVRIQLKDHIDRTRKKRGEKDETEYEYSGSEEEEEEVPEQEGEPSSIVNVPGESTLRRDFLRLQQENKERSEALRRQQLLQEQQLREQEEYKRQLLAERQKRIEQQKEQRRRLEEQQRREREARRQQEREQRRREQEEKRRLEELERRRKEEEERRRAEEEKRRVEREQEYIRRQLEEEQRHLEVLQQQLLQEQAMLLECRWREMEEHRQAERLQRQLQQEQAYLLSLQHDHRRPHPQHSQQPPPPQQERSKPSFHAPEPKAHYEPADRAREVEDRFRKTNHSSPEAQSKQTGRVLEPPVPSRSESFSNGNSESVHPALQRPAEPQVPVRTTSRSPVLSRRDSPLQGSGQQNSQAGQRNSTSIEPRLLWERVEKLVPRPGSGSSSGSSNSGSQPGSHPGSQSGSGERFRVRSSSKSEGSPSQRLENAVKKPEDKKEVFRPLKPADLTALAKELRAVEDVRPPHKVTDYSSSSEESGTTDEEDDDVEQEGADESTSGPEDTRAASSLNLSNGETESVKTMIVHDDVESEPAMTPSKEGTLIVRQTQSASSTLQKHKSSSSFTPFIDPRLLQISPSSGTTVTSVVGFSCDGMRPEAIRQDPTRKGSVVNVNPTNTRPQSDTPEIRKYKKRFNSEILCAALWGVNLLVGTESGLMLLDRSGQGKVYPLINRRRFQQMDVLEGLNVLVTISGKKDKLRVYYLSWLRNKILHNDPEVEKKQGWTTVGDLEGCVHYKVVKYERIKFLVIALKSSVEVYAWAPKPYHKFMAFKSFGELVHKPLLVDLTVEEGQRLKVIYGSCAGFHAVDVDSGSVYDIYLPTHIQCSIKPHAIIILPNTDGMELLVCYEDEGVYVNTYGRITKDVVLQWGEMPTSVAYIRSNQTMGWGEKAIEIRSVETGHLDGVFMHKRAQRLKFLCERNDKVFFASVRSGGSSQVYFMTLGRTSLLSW

- inhibition [1]: 1.51%
- inhibition [2]: -0.1%
- inhibition [3]: -4.3%
- inhibition [4]: 9%
- inhibition [5]: -1%
- inhibition [6]: 5.49%
- inhibition [7]: 67.1%
- inhibition [8]: -0.98%
- inhibition [9]: 0.31%
- inhibition [10]: 4.32%
- inhibition [11]: 1.98%
Compound: C[C@]1(O)C[C@@H](c2nc(-c3ccc4ccc(-c5ccccc5)nc4c3)c3c(N)nccn32)C1

- inhibition [12]: 2.2%
- inhibition [13]: -4.23%
- inhibition [14]: 9.85%
- inhibition [15]: -4.48%
- inhibition [16]: 19.1%
Compound: C[C@@]1(C(=O)Nc2ccc(F)nc2)CCCN1c1nc(Nc2cc(C3CC3)n[nH]2)c2cccn2n1

Compound: Nc1n[nH]c2nnc(-c3c(-c4ccccc4)nn4ccccc34)cc12
- inhibition [17]: 3.54%
